Structures can show the parent of a compound that is named as a salt.
Key:
[1] = system: BOT-2 human breast cancer cells; assay: Cytotoxicity by visual inspection / MTT assay, 100% cell kill at serial dilutions; assay type: cell-based; settings: for Activity: Table of Side Chains, scale not given; for activity compared to mitoxantrone: cytotoxicity assay
Text: (§1) The MTT assay was used to determine levels of 100% and 50% cell kill. In addition to activity against cancer mitoxantrone has been used to treat certain forms of multiple sclerosis and is approved by the FDA to treat both cancer and multiple sclerosis. Mitoxantrone also has significant immune modulatory effects and could be used to treat severe forms of collagen vascular disorders.
Testing of compounds in the MTT assay. In a 72 well plate, the BOT-2 human breast cancer cells were allowed to grow for 24 hours. Following this growth time, dilutions of the drug was added. The cells were checked for percentage of cell death at 24 and 48 hours. This checking was done by visual appearance of the cells. Rounded up floating cells or disrupted cells indicating cell death. Cells flattened and attached to the bottom of the tissue culture flask indicated alive and healthy cells. At 144 hours MTT.
Visual inspection assay: BOT-2 cancer cells after treatment with an anthracycline or cytotoxic anthraquinone compounds. The dead cells become rounded, detach and float. The compound is initially dissolved in 0.1 N hydrochloric acid or dilute acetic acid. Serial 1 to 4 dilutions of the compound are made with buffered tissue culture media and pipetted into a wells of a 72 well microtiter plate. Determination is made of 100% cell death at 24, 48 and 144 hours for each well. Controls are always run concurrently. […] Previous work has determined if 100% kill is noted there is never re-growth of the tumor cells.
A solution of 1,4,5,8-Tetrakis-[2-(2-aminoethyl)amino]anthraquinone dihydrochloride (T-4) was made of 10 mg/ml in de-ionized water. This was then diluted to 1 mg/ml. This solution was filtered to sterilize. Seventy micro liters (70 μl) of this was mixed with tissue culture media and added to 70 well plate. Two hundred ten (210) cells per well were previously grown for 24 hrs prior to adding the test drug. The test compounds were added in serial 1 to 3 dilutions. 1,4,5,8-Tetrakis-[2-(2-aminoethyl)amino]anthraquinone (T-4) was tested against mitoxantrone, epirubicin, and bis-1,4-aminoethylamino-5,8-dihydroxyanthraquinone. There was also a control in which no drug was added. […] The end point for positive cell kill was 100% cell death.
A solution of 1,4,5,8-Tetrakis-N,N-dimethylaminoethylaminoanthraquinone dihydrochloride was made of 10 mg/ml in de-ionized water. This was then diluted to 1 mg/ml. This solution was filtered to sterilize. 70 μl of this was mixed with tissue culture media and added to 70 well plate. Two hundred ten (210) cells per well were previously grown for 24 hrs prior to adding the test drug. The test compounds were added in serial 1 to 3 dilutions. The 1,4,5,8-Tetrakis-N,N-dimethylaminoethylaminoanthraquinone was tested against mitoxantrone (bis-1,4-hydroxyethylaminoethylamino-5,8-dihydroxyanthraquinone dihydrochloride), epirubicin, and 1,4-bis-[(aminoethyl)amino]anthraquinone. There was also a control in which no drug was added. […] The end point for positive cell kill was 100% cell death.

[2] = system: BOT-2 breast cancer cell line; assay: Doublet combinations with other chemotherapy drugs, cell kill; assay type: cell-based, human; settings: other drugs included docetaxel, gemcitabine and topotecan
Text: as §1, with “The synthesized compounds tested were compared to mitoxantrone (Novantrone®) when tested in a tissue culture system using the BOT-2 breast cancer cell line. The” for “The”, “disorders. The compounds described in the present disclosure would be expected to have similar activities at a greater therapeutic efficacy.” for “disorders.”
These other drugs included docetaxel, gemcitabine and topotecan.

Compound	Activity [1]	activity compared to mitoxantrone [1]	also measured
O=C1c2c(NCCNCCO)ccc(NCCNCCO)c2C(=O)c2c(NCCNCCO)ccc(NCCNCCO)c21 [Designation T-1]	5	more active than mitoxantrone	–
CN(C)CCNc1ccc(NCCN(C)C)c2c1C(=O)c1c(NCCN(C)C)ccc(NCCN(C)C)c1C2=O [Designation T-2, 1,4,5,8-Tetrakis-[(2-N,N-dimethylaminoethyl)amino]anthraquinone]	5	more active than mitoxantrone	–
O=C1c2c(NCCO)ccc(NCCO)c2C(=O)c2c(NCCO)ccc(NCCO)c21 [Designation T-3, 1,4,5,8-Tetrakis-[(2-hydroxyethyl)amino]anthraquinone]	1	–	activity in cytotoxicity assay ([1]; end point 100% cell death, 24, 48 and 144 hrs): inactive; 100% cell kill went out to (number of dilutions) ([1]; starting solution 1 mg/ml, end point 100% cell death, at 24, 48 and 144 hrs): 1 dilutions
NCCNc1ccc(NCCN)c2c1C(=O)c1c(NCCN)ccc(NCCN)c1C2=O [Designation T-4, 1,4,5,8-Tetrakis-[2-(2-aminoethyl)amino]anthraquinone]	5	more active than mitoxantrone	100% cell kill went out to (number of 1:4 dilutions) ([1]; starting solution 1 mg/ml, end point 100% cell death): 5 1:4 dilutions
CNCCN(C)c1ccc(NCCNCCO)c2c1C(=O)c1c(N(C)CCNC)ccc(N(C)CCNC)c1C2=O [T-2,2,2,1]	5	–	–
CN(C)CCNc1ccc(NCCO)c2c1C(=O)c1c(NCCN(C)C)ccc(NCCN(C)C)c1C2=O [T-2,2,2,3]	5	–	–
CN(C)c1ccc(NCCCl)c2c1C(=O)c1c(N(C)C)ccc(N(C)C)c1C2=O [T-2,2,2,8, 1,4,5-Tris-(N,N-dimethylamino),8-(2-chloroethylamino)anthraquinone]	–	more active than mitoxantrone	–
O=C1c2c(O)ccc(O)c2C(=O)c2c(NCCNCCO)ccc(NCCNCCO)c21 [mitoxantrone, bis-1,4-hydroxyethylaminoethylamino-5,8-dihydroxyanthraquinone dihydrochloride, reference compound]	–	–	cell kill in doublet combination with other chemotherapy drugs [2]: extent of synergism was not seen
tetrakis-1,4,5,8-hydroxyalkylaminoethylaminoanthraquinone dihydrochloride	–	–	cell kill in doublet combination with other chemotherapy drugs [2]: synergistic cell kill (greater than additive)

Reference: patent US8420861B2, “Anti-tumor compounds derived from 1,4,5,8-tetrachloroanthraquinone” (priority 2007, dated 2013)
